Test system: HT-1080
Test: Antiproliferative activity against human HT1080 cells after 96 hrs by MTT assay
Type: functional, cell-based
Details: HT-1080, 96 h

IC50: 750 nM
SMILES: COc1cc([C@@H]2c3cc4c(cc3[C@@H](O[C@@H]3O[C@@H]5CO[C@@H](C)O[C@H]5[C@H](O)[C@H]3O)[C@H]3COC(=O)[C@H]23)OCO4)cc(OC)c1O [ETOPOSIDE]

— ChEMBL document CHEMBL1759870, “Identification, structural properties and chelating capacity of miltipolone as a broad-spectrum inhibitor to cancer cells” (Eur J Med Chem, 2011)
